Assay results published in ChEMBL document CHEMBL4052761, “20(R)-Ginsenoside Rg3 protects SH-SY5Y cells against apoptosis induced by oxygen and glucose deprivation/reperfusion” (2017).
Calls of active or inactive are those of the source. The rule behind the calls is not given here.

Legend:
[1] = tested on: SH-SY5Y; assay: Cytoprotection against oxygen-glucose deprivation/reperfusion-induced cell death in human SH-SY5Y cells assessed as reduction in LDH leakage at 100 umol/L pretreated for 24 hrs followed by oxygen-glucose deprivation for 10 hrs and reperfusion for 24 hrs; assay type: functional, cell-based
[2] = tested on: SH-SY5Y; assay: Cytoprotection against oxygen-glucose deprivation/reperfusion-induced cell death in human SH-SY5Y cells assessed as increase in cell viability at 100 umol/L pretreated for 24 hrs followed by oxygen-glucose deprivation for 10 hrs and reperfusion for 24 hrs by MTT assay; assay type: functional, cell-based
[3] = tested on: SH-SY5Y; assay: Cytoprotection against oxygen-glucose deprivation/reperfusion-induced cell death in human SH-SY5Y cells assessed as decrease in cleaved caspase-3 level at 100 umol/L pretreated for 24 hrs followed by oxygen-glucose deprivation for 10 hrs and reperfusion for 24 hrs by Western blot analysis; assay type: functional, cell-based
[4] = tested on: SH-SY5Y; assay: Cytoprotection against oxygen-glucose deprivation/reperfusion-induced cell death in human SH-SY5Y cells assessed as decrease in Bax m-RNA expression at 100 umol/L pretreated for 24 hrs followed by oxygen-glucose deprivation for 10 hrs and reperfusion for 24 hrs by RT-qPCR analysis; assay type: functional, cell-based
[5] = tested on: SH-SY5Y; assay: Cytoprotection against oxygen-glucose deprivation/reperfusion-induced cell death in human SH-SY5Y cells assessed as increase in Bcl2 m-RNA expression at 100 umol/L pretreated for 24 hrs followed by oxygen-glucose deprivation for 10 hrs and reperfusion for 24 hrs by RT-qPCR analysis; assay type: functional, cell-based
[6] = tested on: SH-SY5Y; assay: Cytoprotection against oxygen-glucose deprivation/reperfusion-induced cell death in human SH-SY5Y cells assessed as increase in cell viability at 25 to 125 umol/L pretreated for 24 hrs followed by oxygen-glucose deprivation for 10 hrs and reperfusion for 24 hrs by MTT assay; assay type: functional, cell-based
[7] = tested on: SH-SY5Y; assay: Cytoprotection against oxygen-glucose deprivation/reperfusion-induced cell death in human SH-SY5Y cells assessed as reduction in LDH leakage at 25 to 125 umol/L pretreated for 24 hrs followed by oxygen-glucose deprivation for 10 hrs and reperfusion for 24 hrs; assay type: functional, cell-based
[8] = tested on: SH-SY5Y; assay: Cytoprotection against oxygen-glucose deprivation/reperfusion-induced cell death in human SH-SY5Y cells assessed as reduction in LDH leakage at 1 to 5 umol/L pretreated for 24 hrs followed by oxygen-glucose deprivation for 10 hrs and reperfusion for 24 hrs; assay type: functional, cell-based
[9] = tested on: SH-SY5Y; assay: (§1) Cytoprotection against oxygen-glucose deprivation/reperfusion-induced cell death in human SH-SY5Y cells assessed as early apoptotic cells at 1 umol/L pretreated for 24 hrs followed by oxygen-glucose deprivation for 10 hrs and reperfusion for 24 hrs by annexin V-FITC-propidium iodide staining-based flow cytometry method (reference value: 24.0%); assay type: functional
[10] = tested on: SH-SY5Y; assay: as §1, with “late” for “early”, “10.5%)” for “24.0%)”; assay type: functional
[11] = tested on: SH-SY5Y; assay: as §1, with “necrotic” for “early apoptotic”, “2.3%)” for “24.0%)”; assay type: functional
[12] = tested on: SH-SY5Y; assay: as §1, with “viable” for “early apoptotic”, “63.2%)” for “24.0%)”; assay type: functional; settings: read-out: Activity
[13] = tested on: SH-SY5Y; assay: as §1, with “at 5” for “at 1”; assay type: functional
[14] = tested on: SH-SY5Y; assay: as §1, with “as late” for “as early”, “at 5” for “at 1”, “value: 10.5%)” for “value: 24.0%)”; assay type: functional
[15] = tested on: SH-SY5Y; assay: as §1, with “as necrotic” for “as early apoptotic”, “at 5” for “at 1”, “value: 2.3%)” for “value: 24.0%)”; assay type: functional
[16] = tested on: SH-SY5Y; assay: as §1, with “as viable” for “as early apoptotic”, “at 5” for “at 1”, “value: 63.2%)” for “value: 24.0%)”; assay type: functional; settings: read-out: Activity
[17] = tested on: SH-SY5Y; assay: as §1, with “at 25” for “at 1”; assay type: functional
[18] = tested on: SH-SY5Y; assay: as §1, with “as late” for “as early”, “at 25” for “at 1”, “value: 10.5%)” for “value: 24.0%)”; assay type: functional
[19] = tested on: SH-SY5Y; assay: as §1, with “as necrotic” for “as early apoptotic”, “at 25” for “at 1”, “value: 2.3%)” for “value: 24.0%)”; assay type: functional
[20] = tested on: SH-SY5Y; assay: as §1, with “as viable” for “as early apoptotic”, “at 25” for “at 1”, “value: 63.2%)” for “value: 24.0%)”; assay type: functional; settings: read-out: Activity
[21] = tested on: SH-SY5Y; assay: as §1, with “at 125” for “at 1”; assay type: functional
[22] = tested on: SH-SY5Y; assay: as §1, with “as late” for “as early”, “at 125” for “at 1”, “value: 10.5%)” for “value: 24.0%)”; assay type: functional
[23] = tested on: SH-SY5Y; assay: as §1, with “as necrotic” for “as early apoptotic”, “at 125” for “at 1”, “value: 2.3%)” for “value: 24.0%)”; assay type: functional
[24] = tested on: SH-SY5Y; assay: as §1, with “as viable” for “as early apoptotic”, “at 125” for “at 1”, “value: 63.2%)” for “value: 24.0%)”; assay type: functional; settings: read-out: Activity
[25] = tested on: SH-SY5Y; assay: as §1, with “cells” for “cells at 1 umol/L”; assay type: functional
[26] = tested on: SH-SY5Y; assay: as §1, with “late” for “early”, “cells” for “cells at 1 umol/L”, “10.5%)” for “24.0%)”; assay type: functional
[27] = tested on: SH-SY5Y; assay: as §1, with “necrotic” for “early apoptotic”, “cells” for “cells at 1 umol/L”, “2.3%)” for “24.0%)”; assay type: functional
[28] = tested on: SH-SY5Y; assay: as §1, with “viable” for “early apoptotic”, “cells” for “cells at 1 umol/L”, “63.2%)” for “24.0%)”; assay type: functional
[29] = tested on: SH-SY5Y; assay: Cytoprotection against oxygen-glucose deprivation/reperfusion-induced cell death in human SH-SY5Y cells assessed as decrease in cleaved caspase-3 level at 25 to 125 umol/L pretreated for 24 hrs followed by oxygen-glucose deprivation for 10 hrs and reperfusion for 24 hrs by Western blot analysis; assay type: functional, cell-based
[30] = tested on: SH-SY5Y; assay: Cytoprotection against oxygen-glucose deprivation/reperfusion-induced cell death in human SH-SY5Y cells assessed as decrease in Bax protein level at 5 to 125 umol/L pretreated for 24 hrs followed by oxygen-glucose deprivation for 10 hrs and reperfusion for 24 hrs by Western blot analysis; assay type: functional, cell-based
[31] = tested on: SH-SY5Y; assay: Cytoprotection against oxygen-glucose deprivation/reperfusion-induced cell death in human SH-SY5Y cells assessed as increase in Bcl-2 protein level at 5 to 125 umol/L pretreated for 24 hrs followed by oxygen-glucose deprivation for 10 hrs and reperfusion for 24 hrs by Western blot analysis; assay type: functional, cell-based
[32] = tested on: SH-SY5Y; assay: Cytoprotection against oxygen-glucose deprivation/reperfusion-induced cell death in human SH-SY5Y cells assessed as decrease in Bax m-RNA expression pretreated for 24 hrs followed by oxygen-glucose deprivation for 10 hrs and reperfusion for 24 hrs by RT-qPCR analysis; assay type: functional, cell-based
[33] = tested on: SH-SY5Y; assay: Cytoprotection against oxygen-glucose deprivation/reperfusion-induced cell death in human SH-SY5Y cells assessed as decrease in Bax m-RNA expression at 125 umol/L pretreated for 24 hrs followed by oxygen-glucose deprivation for 10 hrs and reperfusion for 24 hrs by RT-qPCR analysis; assay type: functional, cell-based
[34] = tested on: SH-SY5Y; assay: Cytoprotection against oxygen-glucose deprivation/reperfusion-induced cell death in human SH-SY5Y cells assessed as increase in Bcl2 m-RNA expression pretreated for 24 hrs followed by oxygen-glucose deprivation for 10 hrs and reperfusion for 24 hrs by RT-qPCR analysis; assay type: functional, cell-based
[35] = tested on: SH-SY5Y; assay: Cytoprotection against oxygen-glucose deprivation/reperfusion-induced cell death in human SH-SY5Y cells assessed as increase in Bcl2 m-RNA expression at 125 umol/L pretreated for 24 hrs followed by oxygen-glucose deprivation for 10 hrs and reperfusion for 24 hrs by RT-qPCR analysis; assay type: functional, cell-based

COCCOC(=O)C1=C(C)NC(C)=C(C(=O)OC(C)C)C1c1cccc([N+](=O)[O-])c1 (stereo not given)
Activity [1]: Active | Activity [2]: Active | Activity [3]: Active | Activity [4]: Active | Activity [5]: Active

CC(C)=CCC[C@](C)(O)[C@H]1CC[C@]2(C)[C@@H]1[C@H](O)C[C@@H]1[C@@]3(C)CC[C@H](O[C@@H]4O[C@H](CO)[C@@H](O)[C@H](O)[C@H]4O[C@@H]4O[C@H](CO)[C@@H](O)[C@H](O)[C@H]4O)C(C)(C)[C@@H]3CC[C@]12C
Activity [6]: Active | Activity [7]: Active | Activity [8]: inactive | Activity [9]: 17% | Activity [10]: 10.3% | Activity [11]: 2.7% | viability at 1 µM [12]: 69.9% | Activity [13]: 13% | Activity [14]: 11.3% | Activity [15]: 5.8% | viability at 5 µM [16]: 70% | Activity [17]: 7.9% | Activity [18]: 5.7% | Activity [19]: 8.9% | viability at 25 µM [20]: 77.5% | Activity [21]: 5% | Activity [22]: 4.8% | Activity [23]: 9.8% | viability at 125 µM [24]: 80.4% | Activity [25]: 8% | Activity [26]: 2.8% | Activity [27]: 8.9% | Activity [28]: 80.4% | Activity [29]: Active | Activity [30]: Active | Activity [31]: Active | Activity [32]: Dose-dependent effect | Activity [33]: Active | Activity [34]: Dose-dependent effect | Activity [35]: Active
